# Entries after “also recorded” stand apart in the source; their conditions may differ.
# Tests used:
# Type in all cases: cell-based, Drosophila melanogaster
# [1] = system: class III dendritic arborizing (cIII da) neurons; experiment: Confocal GCaMP6f calcium imaging in larval cIII da neurons; conditions: AITC application at time 0 s; n = 12 neurons
# [2] = system: Pickpocket (ppk RNAi in cIV da neurons); experiment: Calcium imaging in cIV da neurons with ppk RNAi; conditions: versus attP genetic control; n = 6 neurons
# [3] = system: Balboa (bba RNAi in cIV da neurons); experiment: Calcium imaging in cIV da neurons with bba RNAi; conditions: versus attP2 genetic control; n = 6 neurons
# [4] = system: dTRPA1-C; experiment: Calcium imaging in cIII da neurons expressing dTRPA1-C; conditions: AITC application at time 0 s; n = 12 neurons
# [5] = system: dTRPA1-D; experiment: Calcium imaging in cIII da neurons expressing dTRPA1-D; conditions: AITC application at time 0 s; n = 12 neurons
smiles,measurement,setting,value
"C=CCN=C=S [AITC, allyl isothiocyanate]","Calcium response of cIII da neurons, AITC",[1],do not activate strongly in response to AITC
same,"Calcium response with ppk RNAi, AITC",[2],did not strongly affect their responses to AITC; also recorded: respond to AITC similarly as genetic controls
same,"Calcium response with bba RNAi, AITC",[3],did not strongly affect their responses to AITC; also recorded: respond to AITC similarly as genetic controls
same,"Calcium response of cIII da neurons expressing dTRPA1-C, AITC",[4],renders them responsive to AITC; also recorded: rendered them sensitive to AITC
same,"Calcium response of cIII da neurons expressing dTRPA1-D, AITC",[5],renders them responsive to AITC; also recorded: rendered them sensitive to AITC
